Experimental data from US6935334B2, “Enhancing therapeutic effectiveness of nitric oxide inhalation” (The General Hospital Corporation, priority 2000, dated 2005).

Key:
[1] = system: isolated-perfused mouse lungs preconstricted with U46619; assay: Pulmonary vasodilator response to NO inhalation in isolated, perfused and ventilated mouse lungs preconstricted with U46619; assay type: in vivo; conditions: for pulmonary vasodilator response to subsequent ventilation with NO after prolonged NO breathing: prolonged breathing of 20 ppm NO
Experimental: Isolated, Perfused, and Ventilated Mouse Lung Model Mice were killed by intraperitoneal injection of pentobarbital sodium (200 mg/kg body weight) and placed in a 37° C. water-jacketed chamber (Isolated Perfused Lung Size 1 Type 839; Hugo-Sachs Elektronik, March-Hugstetten, Germany). The trachea was isolated and intubated, and the lungs were ventilated with 21% O2, 6% CO2 and 73% N2 using a volume-controlled ventilator (model 687; Harvard Apparatus, South Natick, Mass.) at a ventilatory rate of 85 breaths/min and 2 cm H2O end-expiratory pressure. The tidal volume was adjusted to provide a peak inspiratory pressure of 10 cm H2O throughout each study. The lungs were exposed via a midline sternotomy, and a ligataure was placaed around the aorticopulmonary outflow tract. After injection of 10 IU heparin into the right ventricle, the pulmonary artery was cannulated with a stainless steel cannula (1 mm ID) via the right ventricle. The pulmonary venous effluent was drained via a stainless steel cannula (1 mm ID) placed through the apex of the left ventricle across the mitral valve and into the left atrium. Left atrial pressure was maintained at 2 mmHg. Lungs were perfused at a constant flow (50 ml. kg body weight^−1. min^−1; Ismatec Reglo-Analogue roller pump; Laboratoriumstechnik GmbH, Wertheim-Mondfeld, Germany) with a non-recirculating system at 37° C. The perfusate used was Hanks' Balanced Salt Solution (GibcoBRL, Grand Island, N.Y.) containing 1.26 mM CaCl2, 5.33 mM KCl, 0.44 mM KH2PO4, 0.50 mM MgCl2, 0.41 mM MgSO4, 138.0 mM NaCl, 4.0 mM NaHCO3, 0.3 mM Na2HPO4, and 5.6 mM glucose. Bovine serum albumin, 5%, and dextran, 5% (both from Sigma Chemical Co., St. Louis, Mo.), were added to the perfusate to prevent pulmonary edema, in the isolated, perfused, and ventilated rat lung, essentially as described in Holzmann et al., 1996, Am. J. Physiol. 271:L981-L986. Indomethacin, […] (Sigma Chemical Co.), and 1 mM L-NAME (Sigma Chemical Co.) were added to the perfusate to inhibit endogenous prostaglandin and NO synthesis, respectively. Sodium bicarbonate was added to adjust the perfusate pH to 7.34-7.43.
Pulmonary artery pressure (PAP) and left atrial pressure were measured via saline-filled membrane pressure transducers (Argon, Athens, Tex.) connected to a side port of the inflow and outflow cannulae, respectively. Airway pressure (Paw) was measured using a differential pressure transducer (model MP-45-32-871; Validyne Engineering Corp., Northridge, Calif.) connected to the inspiratory limb just before the Y piece. Pressure transducers were connected to a biomedical amplifier (Hewlett Packard 7754B, Andover, Mass.), and data were recorded at 150 Hz on a personal computer using an analog-to-digital interface with a data acquisition system (DI-220; Dataq Instruments, Akron, Ohio). The system was calibrated before each experiment.
For NO inhalation, NO gas (800 or 80 ppm NO in nitrogen, Airco, Murray Hill, N.J.) was blended (Oxygen Blender; Bird Corporation, Palm Springs, Calif.) with oxygen, carbon dioxide, and nitrogen to achieve a final concentration of 21% O2, 6% CO2, and the desired NO concentration. NO and higher oxidative states of NO (NOx; CLD 700 AL; Eco Physics, Dürmten, Switzerland), oxygen (Hudson Ventronics Ddivision, Temecula, Calif.), and carbon dioxide (Datex CO2 monitor; Puritan-Bennett Corpration, Los Angeles, Calif.) concentrations were monitored continuously.
Pulmonary Vascular Response to NO inhalation after Lipopolysaccharide Challenge Wild-type mice and NOS2-deficient mice were injected intraperitoneally with 50 mg/kg body weight Escherichia coli 0111:B4 lipopolysaccharide (LPS; Difco Laboratories, Detroit, Mich.) dissolved in saline 16 h before isolated lung perfusion. This time point was chosen based on previous studies in rats (Holzmann et al., 1996, Am. J. Physiol. 271:L981-L986). Untreated wild-type and NOS2-deficient mice served as controls. […]

[2] = Wet-to-dry lung weight ratio after isolated lung perfusion (Example 1); assay type: in vivo, mouse; conditions: exposure to NO inhalation for 16 h
Experimental: Wet-to-Dry Lung Weight Ratio At the end of each experiment, both lungs, excluding hilar structures, were excised and weighed (wet weight). Thereafter, the lungs were dried in a microwave oven for 60 min, as previously described (Holzmann et al., supra), and then reweighed (dry weight). Wet-to-dry lung weight ratios were calculated by dividing the wet weight by the dry weight.

[N]=O [NO, Nitric oxide]
effect of NO inhalation on PAP ([1]; 0.4, 4 and 40 ppm NO for 5 min each, all groups): decreased the PAP in a dose-dependent manner
ΔPAP (change in PAP by inhaled NO as percentage of U46619-induced increase) ([1]; 0.4 ppm NO, lipopolysaccharide-pretreated NOS2-deficient mice exposed to 20 ppm ambient NO for 16 h): −24±4%
ΔPAP (change in PAP by inhaled NO as percentage of U46619-induced increase) ([1]; 0.4 ppm NO, untreated control NOS2-deficient mice exposed to 20 ppm ambient NO for 16 h): −42±4%
ΔPAP (change in PAP by inhaled NO as percentage of U46619-induced increase) ([1]; 4 ppm NO, lipopolysaccharide-pretreated NOS2-deficient mice exposed to 20 ppm ambient NO for 16 h): −39±5%
ΔPAP (change in PAP by inhaled NO as percentage of U46619-induced increase) ([1]; 4 ppm NO, untreated control NOS2-deficient mice exposed to 20 ppm ambient NO for 16 h): −58±4%
ΔPAP (change in PAP by inhaled NO as percentage of U46619-induced increase) ([1]; 40 ppm NO, lipopolysaccharide-pretreated NOS2-deficient mice exposed to 20 ppm ambient NO for 16 h): −55±3%
ΔPAP (change in PAP by inhaled NO as percentage of U46619-induced increase) ([1]; 40 ppm NO, untreated control NOS2-deficient mice exposed to 20 ppm ambient NO for 16 h): −62±5%
subsequent responsiveness to short-term inhaled NO after prolonged NO breathing ([1]; breathing 0.2 ppm NO for 16 h after lipopolysaccharide, NOS2-deficient mice): did not cause subsequent hyporesponsiveness
subsequent vasodilator response to 0.4 ppm NO inhalation after prolonged NO breathing ([1]; breathing 2 ppm NO for 16 h after lipopolysaccharide, NOS2-deficient mice, compared with control mice): decreased the vasodilator response
pulmonary vasodilator response to subsequent ventilation with NO after prolonged NO breathing ([1]; endotoxin-challenged NOS2-deficient mice): markedly impaired the pulmonary vasodilator response
pulmonary vasodilator response to subsequent ventilation with NO after prolonged NO breathing ([1]; untreated wild-type or NOS2-deficient mice): does not impair the pulmonary vasodilator response
wet-to-dry lung weight ratio ([2]; lipopolysaccharide-pretreated NOS2-deficient mice): 5.1±0.2
wet-to-dry lung weight ratio ([2]; lipopolysaccharide-pretreated wild-type mice): 4.9±0.1
wet-to-dry lung weight ratio ([2]; untreated NOS2-deficient mice): 4.8±0.1
wet-to-dry lung weight ratio ([2]; untreated wild-type mice): 4.5±0.3
